This passage reports LD50 results from patent US4001419A, “1'-Substituted xanthene-9-spiro-4'-piperidine derivatives” (Imperial Chemical Industries Limited, priority 1974, dated 1977).

One data set is described as follows: LD50 (acute toxicity). Particulars: mouse, in vivo; intravenous; read-out: LD50 when dosed intravenously. More on the design: species or system mice. How it is done:
All the compounds exemplified in this specification are active on at least one of these standard tests at a dose of equal to or less than 100 mg./kg. of the free base. […] Other LD50 values for compounds of the invention when dosed intravenously are as follows: […]
The LD50 is the dose expected to kill half of the subjects tested. For `CC(=O)Oc1cccc2c1Oc1cc(Cl)ccc1C21CCN(C)CC1` [4-OAc H 6-Cl H], the median lethal dose (LD50) is more than 35 mg/kg.

`CSc1ccc2c(c1)Oc1c(OC(C)=O)cccc1C21CCN(C)CC1` [4-OAc H 6-SMe H]: the median lethal dose (LD50) was more than 40 mg/kg.

With `CN1CCC2(CC1)c1ccc(Cl)cc1Oc1c(O)cccc12` [6-chloro-4-hydroxy-1'-methylxanthene-9-spiro-4'-piperidine], the 50% lethal dose (LD50) was more than 25 mg/kg.

For the molecule `COc1ccc2c(c1)Oc1c(OC(C)=O)cccc1C21CCN(C)CC1` [4-OAc H 6-OMe H], the 50% lethal dose (LD50) was more than 20 mg/kg.

Consider `CN1CCC2(CC1)c1cccc(O)c1Oc1cccc(F)c12` [4-OH H 8-F H], for which the median lethal dose (LD50) is more than 20 mg/kg.

The data set is the same for the next values; noted with them: mouse, in vivo; mice, oral; read-out: oral LD50.
Consider `CN1CCC2(CC1)c1ccc(Cl)cc1Oc1c(O)cccc12` [6-chloro-4-hydroxy-1'-methylxanthene-9-spiro-4'-piperidine], for which the LD50 is more than 200 mg/kg.
